# “And” between values parts separate entries of the source, which are not always exact repeats. Equal entries are not always repeated. Toxic doses and inconclusive results are not listed.
# Test system: P388 leukemia ip, CD2F1 mice, survival T/C
# Assay: NCI In Vivo Anticancer Drug Screen. Data for tumor model P388 Leukemia (intraperitoneal) in CD2F1 (CDF1) mice
# Settings: endpoint: median survival time, higher = longer survival
# Summary of the method: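 Mice carrying the transplanted tumor received test compound or vehicle. Survival was recorded in each group, and the value is the treated-group measurement divided by that of the vehicle-treated control group.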
# [1] = dose: 50.0 mg/kg/injection, schedule: Q01DX009 (ip), vehicle: Klucel (hydroxypropylcellulose) (HPC)
# [2] = dose: 100.0 mg/kg/injection, schedule: Q01DX009 (ip), vehicle: Klucel (hydroxypropylcellulose) (HPC)
# [3] = dose: 50.0 mg/kg/injection, schedule: Q01DX005 (ip), vehicle: Klucel (hydroxypropylcellulose) (HPC)
# [4] = dose: 100.0 mg/kg/injection, schedule: Q01DX005 (ip), vehicle: Klucel (hydroxypropylcellulose) (HPC)
# [5] = dose: 200.0 mg/kg/injection, schedule: Q01DX005 (ip), vehicle: Klucel (hydroxypropylcellulose) (HPC)
# [6] = dose: 100.0 mg/kg/injection, schedule: Q04DX003 (ip), vehicle: Klucel (hydroxypropylcellulose) (HPC)
# [7] = dose: 200.0 mg/kg/injection, schedule: Q01DX009 (ip), vehicle: Klucel (hydroxypropylcellulose) (HPC)
# [8] = dose: 200.0 mg/kg/injection, schedule: Q04DX003 (ip), vehicle: Klucel (hydroxypropylcellulose) (HPC)
# [9] = dose: 400.0 mg/kg/injection, schedule: Q04DX003 (ip), vehicle: Klucel (hydroxypropylcellulose) (HPC)
# [10] = dose: 100.0 mg/kg/injection, schedule: Q04DX003 (ip), vehicle: saline with Tween-80
# [11] = dose: 200.0 mg/kg/injection, schedule: Q04DX003 (ip), vehicle: saline with Tween-80
# [12] = dose: 50.0 mg/kg/injection, schedule: Q01DX005 (ip), vehicle: saline
# [13] = dose: 100.0 mg/kg/injection, schedule: Q01DX005 (ip), vehicle: saline
# [14] = dose: 200.0 mg/kg/injection, schedule: Q01DX005 (ip), vehicle: saline
# [15] = dose: 50.0 mg/kg/injection, schedule: Q01DX005 (ip), vehicle: saline with Tween-80
# [16] = dose: 100.0 mg/kg/injection, schedule: Q01DX005 (ip), vehicle: saline with Tween-80
# [17] = dose: 200.0 mg/kg/injection, schedule: Q01DX005 (ip), vehicle: saline with Tween-80
# [18] = dose: 50.0 mg/kg/injection, schedule: Q04DX003 (ip), vehicle: saline with Tween-80
compound,measurement,setting,value
CCN1CCC(=C(c2ccccc2)c2ccccc2)C1,T/C,"dose: 6.25 mg/kg/injection, schedule: Q01DX009 (ip), vehicle: Klucel (hydroxypropylcellulose) (HPC)",102 % of control
same,T/C,"dose: 12.5 mg/kg/injection, schedule: Q01DX009 (ip), vehicle: Klucel (hydroxypropylcellulose) (HPC)",102 % of control
same,T/C,"dose: 25.0 mg/kg/injection, schedule: Q01DX009 (ip), vehicle: Klucel (hydroxypropylcellulose) (HPC)",100 % of control
same,T/C,[1],110 % of control
same,T/C,[2],108 % of control
CC(=O)OCC1OC(c2ccccc2)C/C(=N/O)C1OC(C)=O (configuration not stated),T/C,[3],96 % of control
same,T/C,[4],93 % of control
same,T/C,[5],94 % of control
CN=C(N)N/N=C/c1c2ccccc2c(Cl)c2ccccc12,T/C,"dose: 25.0 mg/kg/injection, schedule: Q04DX002 (ip), vehicle: saline with Tween-80",114 % of control
CCCCOc1ccc(NN=O)cn1,T/C,"dose: 3.12 mg/kg/injection, schedule: Q01DX009 (ip), vehicle: water",106 % of control
same,T/C,"dose: 6.25 mg/kg/injection, schedule: Q01DX009 (ip), vehicle: water",92 % of control
same,T/C,"dose: 12.5 mg/kg/injection, schedule: Q01DX009 (ip), vehicle: water",99 % of control
same,T/C,"dose: 25.0 mg/kg/injection, schedule: Q01DX009 (ip), vehicle: water",93 % of control
same,T/C,"dose: 50.0 mg/kg/injection, schedule: Q01DX009 (ip), vehicle: water",92 % of control and 97 % of control
same,T/C,"dose: 100.0 mg/kg/injection, schedule: Q01DX009 (ip), vehicle: water",97 % of control
same,T/C,"dose: 200.0 mg/kg/injection, schedule: Q01DX009 (ip), vehicle: water",101 % of control
COC(OC)C1(C)NC(=O)NC1=O (configuration not stated),T/C,[1],102 % of control
same,T/C,[2],103 % of control
same,T/C,[6],95 % of control
same,T/C,[7],93 % of control
same,T/C,[8],98 % of control
same,T/C,[9],100 % of control
Cc1c(Cc2ccccc2)[n+](=O)c2ccccc2n1[O-],T/C,[3],92 % of control
same,T/C,[4],95 % of control
same,T/C,[6],100 % of control
same,T/C,[10],101 % of control
same,T/C,[5],99 % of control
same,T/C,[8],98 % of control
same,T/C,[11],110 % of control
same,T/C,"dose: 400.0 mg/kg/injection, schedule: Q01DX005 (ip), vehicle: Klucel (hydroxypropylcellulose) (HPC)",94 % of control
same,T/C,[9],104 % of control
same,T/C,"dose: 400.0 mg/kg/injection, schedule: Q04DX003 (ip), vehicle: saline with Tween-80",118 % of control
CC(O)c1cc(=O)[nH][nH]1 (configuration not stated),T/C,[12],105 % of control
same,T/C,[13],99 % of control
same,T/C,[14],110 % of control
CC(=O)Nc1cc(S(=O)(=O)O)cc2c(N=Nc3ccc(C(=O)Nc4ccc(N=Nc5ccc(S(=O)(=O)O)cc5)cc4)cc3)c(S(=O)(=O)O)cc(O)c12,T/C,[15],93 % of control
same,T/C,[16],90 % of control
same,T/C,[17],101 % of control
CCNC(=O)C1CCN(Cc2c[nH]c3ccccc23)CC1,T/C,[18],113 % of control
same,T/C,[10],93 % of control
same,T/C,[11],102 % of control
COc1cc(/C(=C(\CC(=O)O)C(=O)O)c2ccc3c(c2)OCO3)cc(OC)c1OC,T/C,[3],102 % of control and 103 % of control
same,T/C,[4],103 % of control and 111 % of control
same,T/C,[5],99 % of control and 100 % of control
c1ccc(C2C(c3nc4ccccc4o3)C(c3ccccc3)C2c2nc3ccccc3o2)cc1 (configuration not stated),T/C,[3],91 % of control
same,T/C,[4],89 % of control
same,T/C,[5],86 % of control
CCN(CC)C1CC(O[C@H]2C[C@](O)(C(C)=O)Cc3c(O)c4c(c(O)c32)C(=O)c2c(OC)cccc2C4=O)OC(C)C1O (some centres not stated),T/C,"dose: 0.25 mg/kg/injection, schedule: Q01DX009 (ip), vehicle: water",104 % of control
same,T/C,"dose: 0.5 mg/kg/injection, schedule: Q01DX009 (ip), vehicle: water",114 % of control
same,T/C,"dose: 4.0 mg/kg/injection, schedule: Q01DX009 (ip), vehicle: water",174 % of control and 183 % of control
same,T/C,"dose: 6.0 mg/kg/injection, schedule: Q04DX003 (ip), vehicle: water",117 % of control
same,T/C,"dose: 8.0 mg/kg/injection, schedule: Q01DX009 (ip), vehicle: water",100 % of control
same,T/C,"dose: 20.0 mg/kg/injection, schedule: Q04DX003 (ip), vehicle: water",112 % of control
same,T/C,"dose: 33.3 mg/kg/injection, schedule: Q04DX003 (ip), vehicle: water",96 % of control
same,T/C,"dose: 48.0 mg/kg/injection, schedule: Q04DX003 (ip), vehicle: water",124 % of control
same,T/C,"dose: 96.0 mg/kg/injection, schedule: Q04DX003 (ip), vehicle: water",93 % of control
COCc1c(C)oc2c(C)c3oc(=O)cc(C)c3cc12,T/C,"dose: 100.0 mg/kg/injection, schedule: Q05DX002 (ip), vehicle: saline with Tween-80",101 % of control
same,T/C,"dose: 200.0 mg/kg/injection, schedule: Q05DX002 (ip), vehicle: saline with Tween-80",95 % of control
same,T/C,"dose: 400.0 mg/kg/injection, schedule: Q05DX002 (ip), vehicle: saline with Tween-80",107 % of control
CCCCCCCC(=O)C(=O)c1ccc(O)c(C)c1O,T/C,[1],109 % of control
same,T/C,[2],102 % of control
same,T/C,[7],106 % of control
CCc1cc2c(cc1-c1csc(C/C(N)=N/O)n1)C(C)(C)CCC2(C)C,T/C,"dose: 50.0 mg/kg/injection, schedule: Q01DX009 (ip), vehicle: saline",104 % of control
same,T/C,"dose: 100.0 mg/kg/injection, schedule: Q01DX009 (ip), vehicle: saline",103 % of control
same,T/C,"dose: 200.0 mg/kg/injection, schedule: Q01DX009 (ip), vehicle: saline",100 % of control
Brc1ccc2c(ccc3c2nnc2ncnn23)c1,T/C,"dose: 60.0 mg/kg/injection, schedule: Q01DX005 (ip), vehicle: Klucel (hydroxypropylcellulose) (HPC)",102 % of control
same,T/C,"dose: 120.0 mg/kg/injection, schedule: Q01DX005 (ip), vehicle: Klucel (hydroxypropylcellulose) (HPC)",93 % of control
same,T/C,"dose: 240.0 mg/kg/injection, schedule: Q01DX005 (ip), vehicle: Klucel (hydroxypropylcellulose) (HPC)",86 % of control
O=C1CC2c3ccccc3C1c1ccccc12,T/C,[15],95 % of control
same,T/C,[16],94 % of control
same,T/C,[17],96 % of control
CC(=O)OC1(C)CC2(CCCCC2)N=N1 (configuration not stated),T/C,"dose: 12.5 mg/kg/injection, schedule: Q01DX009 (ip), vehicle: other",100 % of control
same,T/C,"dose: 25.0 mg/kg/injection, schedule: Q01DX009 (ip), vehicle: other",113 % of control
same,T/C,"dose: 50.0 mg/kg/injection, schedule: Q01DX009 (ip), vehicle: other",98 % of control
same,T/C,"dose: 100.0 mg/kg/injection, schedule: Q01DX009 (ip), vehicle: other",111 % of control and 91 % of control
same,T/C,"dose: 200.0 mg/kg/injection, schedule: Q01DX009 (ip), vehicle: other",107 % of control
same,T/C,"dose: 400.0 mg/kg/injection, schedule: Q01DX009 (ip), vehicle: other",113 % of control
CCN(CC)CCNc1ccc(COC(=O)OC)c2sc3ccccc3c(=O)c12,T/C,"dose: 2.5 mg/kg/injection, schedule: Q01DX005 (ip), vehicle: saline with Tween-80",118 % of control
same,T/C,"dose: 5.0 mg/kg/injection, schedule: Q01DX005 (ip), vehicle: saline with Tween-80",124 % of control
same,T/C,"dose: 6.25 mg/kg/injection, schedule: Q01DX005 (ip), vehicle: saline with Tween-80",120 % of control
same,T/C,"dose: 10.0 mg/kg/injection, schedule: Q01DX005 (ip), vehicle: saline with Tween-80",124 % of control
same,T/C,"dose: 12.5 mg/kg/injection, schedule: Q01DX005 (ip), vehicle: saline with Tween-80",111 % of control
same,T/C,"dose: 20.0 mg/kg/injection, schedule: Q01DX005 (ip), vehicle: saline with Tween-80",122 % of control
CC(NCCCCNC(C)C(=O)O)C(=O)O (configuration not stated),T/C,[12],94 % of control
same,T/C,[13],103 % of control
same,T/C,[14],102 % of control
CCCCCCC(O)C(CCCCCC)[Se]C (configuration not stated),T/C,[18],104 % of control
same,T/C,[10],106 % of control and 115 % of control
same,T/C,[11],100 % of control
CC(C)(C)N=C(NC#N)Nc1cccnc1Cl,T/C,"dose: 100.0 mg/kg/injection, schedule: Q04DX002 (ip), vehicle: saline with Tween-80",103 % of control
same,T/C,"dose: 200.0 mg/kg/injection, schedule: Q04DX002 (ip), vehicle: saline with Tween-80",94 % of control
same,T/C,"dose: 400.0 mg/kg/injection, schedule: Q04DX002 (ip), vehicle: saline with Tween-80",92 % of control
